Data on two molecules can be found in patent publication US8207217B2 (Apotex Technologies Inc, priority 2007, dated 2012).

The nature of data set [1]: Speciation plot / pH of aqueous solution (Hyperquad Simulation & Speciation, experimentally determined pKas). Format: physicochemical. From the text:
We have determined that an advantageous salt for use in pharmaceutical preparations is the mono-sodium salt of the D-isoglutamyl-D-tryptophan, which can be formally represented by formula III, which is the predominant pharmaceutical salt at neutral pH. This takes advantage of the fact that the amino acid is a zwitterion. We have determined that the mono-sodium salt as shown in formula III is the most preferred salt in pharmaceutical preparations. The di-sodium salt of formula II is the predominant species at a pH of about 12 or above. A solution of di-sodium salt in water will have a pH of about 12 and therefore it is unsuitable for use in a liquid formulation. Adjustment of a solution of the di-sodium salt back to a pH of about 7 to about 7.4, in fact produces the mono-sodium salt as the predominant species in solution.
FIG. 1 is a speciation plot of the dipeptide H-D-iGlu-D-Trp-OH and its salt calculated with the software Hyperquad Simulation & Speciation using experimentally determined pKas of the acid and amine groups. LH2=H-D-iGlu-D-Trp-OH in diacid form represented by a compound of formula I, LH=mono carboxylic acid salt such as the mono-sodium salt represented by a compound of formula III, L=dicarboxylic acid salt such as the di-sodium salt represented by a compound of formula II, LH3=acid addition salt of H-D-iGlu-D-Trp-OH such as the mono hydrochloride salt of a compound of formula I wherein the NH2 is protonated. The X axis provides the pH of the solution. The Y axis reports the molar fraction of the species present at a particular pH. Note: % formation relative to L is the default terminology of the software. The concentration of 0.5M is used to reflect the equivalency of 1 gm of thymodepressin in 6 ml water during isolation purposes.
Depending on its concentration, the pH of a solution of di-sodium salt is more than about 8.2. A solution containing 100% of the di-sodium salt has pH of greater than about 11.5 as per speciation plot (FIG. 1). The high pH is unsuitable for dosing to human as a solution. pH adjustment from about 7.2 to about 7.4 with mineral acid introduces additional salt, for example, sodium chloride into the formulation.

The conditions of data set [2]: oral drug in traditional tablet or capsule form; cited from earlier work.
The nature of data set [3]: Solubility in water. Type of data set: physicochemical. The protocol:
A solution of D-isoglutamyl-D-tryptophan and sodium hydroxide in water is prepared by adding solid D-isoglutamyl-D-tryptophan to sodium hydroxide solution. […] Sodium hydroxide is chosen based on the convenience in obtaining sodium hydroxide solution, however other sodium bases such as sodium hydride, sodium carbonate, sodium bicarbonate can be used. These chemicals are obvious chemical equivalents to sodium hydroxide for step (a) of the process. In step (b), the solution is filtered to remove any particulates prior to proceeding to step (c).

Data set [4] can be described thus: Hygroscopicity of the solid in air. Format: physicochemical. The protocol: A powdery or amorphous form of a compound, intended for pharmaceutical use may give rise to manufacturing problems due to bulk density issues, hygroscopicity and variable water content that cannot be corrected by vacuum drying. D-isoglutamyl-D-tryptophan is a dipeptide and the drying of an amorphous form at elevated temperature, for example, 80-100° C. under vacuum is not recommended. Thus, there are serious difficulties experienced during the purification of the di-sodium salt of D-isoglutamyl-D-tryptophan and obtaining the pure di-sodium salt on a manufacturing scale. Further, as discussed above, there is no published procedure for its preparation.

With `N[C@H](CCC(=O)N[C@H](Cc1c[nH]c2ccccc12)C(=O)O)C(=O)O` [D-isoglutamyl-D-tryptophan], the “fraction present in the mono-sodium salt form” value in data set [1] (in water at a pH of about 7.0 to about 7.4, 0.5M) is “about 100%”. Besides, the oral bioavailability entry in data set [2] is listed as “not bioavailable”. Further, the solubility in water in data set [3] is reported as < 20 mg per ml.
For “di-sodium salt of D-isoglutamyl-D-tryptophan”, in data set [1] (as per speciation plot (FIG. 1)), the “pH of a solution containing 100% of the di-sodium salt” value is recorded as “greater than 11.5”. The “pH of a solution” value in data set [1] (depending on its concentration) is given as “more than 8.2”. Moreover, in data set [1] (solution of di-sodium salt in water), the “pH of a solution in water” value is “about 12”. Moreover, the “behaviour of the freeze-dried solid in air” value in data set [4] (freeze-dried) was “turning into a gel in a matter of minutes in air”. The hygroscopicity entry in data set [4] (solid form) was “extremely hygroscopic”.
